According to patent publication US20220117920A1, “N-Aryl Benzenesulfonamides as Protonophores for the Treatment of Cancers, Metabolic Diseases and Traumatic Brain Injury” (University of Kentucky Research Foundation, priority 2019, published 2022):

Key:
[1] = test system: AMPK; test: Western blot of AMPK (T172) and ACC (S79) phosphorylation in CRC cells; format: cell-based, human
Description: Biochemistry. Western blotting: Cells were lysed in the appropriate volume of lysis buffer: 50 mM HEPES, 100 mM NaCl, 2 mM EDTA, 1% (v/v) glycerol, 50 mM NaF, 1 mM Na3VO4, 1% (v/v) Triton X-100, with protease inhibitors. The following antibodies were used: AMPK (Cell Signaling, 2532, Cell Signaling Technologies, Danver, Mass., USA), pAMPK (Cell Signaling, 2535), ACC (Cell Signaling, 3676), pACC (Cell Signaling, 11818), Actin (Sigma, A1978). Antibodies for Axin 2, c-Myc and Cyclin D1 have been described previously. ATP analysis: Cells growing in 12-well plates were treated with DMSO or inhibitors in DMSO solution and lysed by adding 1 mL boiling doubly distilled water. Supernatants were analyzed by luminescence using ATP Determination Kit (Invitrogen, A22066; Thermo Fisher Scientific, Waltham, Mass., USA).

[2] = test system: mitochondrial ATP production; test: Agilent Seahorse XF Real-Time ATP Rate Assay; format: cell-based, human; settings: 3 μM
Description: Seahorse assay. Approximately 3×10^4 cells were seeded in XF96 Cell Culture microplate (80 μL of 3.75×10^5 cells/mL) for all experiments. On the next day, cell culture media were replaced with either Seahorse XF modified media with 25 mM glucose and 1 mM pyruvate. After media exchange, cells were treated with 1 μM of oligomycin A, 1.0 μM FCCP and mixture of 1.0 μM of rotenone and 1.0 μM of antimycin A in standard mitochondrial stress test conditions. To determine the uncoupler effects, FCCP was replaced with an equal volume of DMSO, or a compound to be tested in DMSO solution. ATP production rate was analyzed using Agilent Seahorse XF Real-Time ATP Rate Assay.

[3] = test system: purified mitochondria from mouse liver; test: Uncoupling assay (OCR) using purified mitochondria from mouse livers; format: biochemical; settings: 5 μM/1 μM
Description: All the steps were carried out at 4° C. or on ice. After mice were euthanized with CO2 followed by rapid decapitation, whole liver was quickly dissected out on a cold block and homogenized using a Teflon-glass dounce homogenizer containing isolation buffer (215 mM mannitol, 75 mM sucrose, 0.1% BSA, 20 mM HEPES, 1 mM EGTA, adjusted to pH 7.2 with KOH). The homogenate was transferred to a 2 mL-microcentrifuge tube and spun at 1,300×g for 3 min. The supernatant was transferred to a fresh 2 mL-microcentrifuge tube and spun at 13,000×g for 10 min. The supernatant was discarded, and the crude mitochondrial pellet was resuspended in a 1.5 mL-microcentrifuge tubes and pelleted again at 10,000×g for 10 min. The supernatant was discarded, and the mitochondrial pellets were resuspended in isolation buffer to obtain an approximate concentration ≥10 mg/mL of mitochondria. The absolute protein concentration was determined using a bicinchoninic acid (BCA) protein assay kit (Pierce, Cat #23,227) by recording absorbance at 560 nm on a Biotek Synergy HT plate reader (Winooski, Vt., USA).
Mitochondrial Bioenergetics Measurements. Mitochondrial bioenergetic measurements were carried out using a Seahorse XFe96 Extracellular Flux Analyzer (Agilent Technologies, Santa Clara, Calif., USA) to measure oxygen consumption rate (OCR) during various states of respiration. The OCR were measured in the presence of different substrates, inhibitors and uncouplers of the electron transport chain using previous methods with slight modifications. The stocks used for the assays were 500 mM pyruvate, 250 mM malate, and 30 mM adenosine diphosphate (ADP), and 1 M succinate (pH for all was adjusted to 7.2). […] Stock solutions of FH535, Y3, FH535-M, and Y3-M were prepared at 5 mM in 100% DMSO. As per the instructions from XFe96 Extracellular Flux kit, the sensor cartridge was hydrated with water and kept at 37° C. overnight before the experiment. One hour before the assay was conducted, water was removed from assay plates and XF calibrant was added before re-incubation. The injection ports A to D of the sensor cartridge were loaded with 25 μL of different combinations of the above substrates/inhibitors/uncouplers as follows. Before loading, the stocks were diluted appropriately in the respiration buffer (RB) (125 mM KCl, 0.1% BSA, 20 mM HEPES, 2 mM MgCl2, and 2.5 mM KH2PO4; pH 7.2) to get the final concentrations in the respiration chamber of 5 μM pyruvate, 2.5 μM malate, 10 μM of succinate and 1 μM ADP (via Port A), 1 μM oligomycin A (via Port B), 4 μM FCCP or 5 μM/1 μM FH535 or 5 μM/1 μM Y3 or 5 μM/1 μM FH535-M or 5 μM/1 μM Y3-M (via Port C) and 0.1 μM antimycin A (via Port D) starting with the initial volume of 175 μL RB in the chamber and diluting it to 9×, 10×, 11× and 12× with every injection through ports A to D, respectively. Once loaded, the sensor cartridge was placed into the Seahorse XFe96 Flux Analyzer for automated calibration. Seahorse Standard XFe96 assay plates were used for loading mitochondria. Initially total mitochondria were diluted to 6 μg/30 μL in RB and 30 μL was loaded in each well resulting in 6 μg mitochondria/well. The assay plates were centrifuged at 3,000 rpm for 4 min at 4° C. to adhere liver mitochondria at the bottom of the wells. After centrifugation, 145 μL RB (pre-incubated to 37° C.) was added without disturbing the mitochondrial layer to obtain a final volume of 175 μL per well. […]

[4] = Gross-toxicity assay in mice; format: in vivo; settings: intraperitoneal injections up to 15 mg/kg for 5-6 weeks
Description: FIGS. 20A-D show graphs and images illustrating FH535 effect in vivo. (A) Mice body weight after FH535 treatment. C57BL/6 mice (n=5) were treated by intraperitoneal injection with 15 mg/Kg of FH535 or DMSO vehicle control every 4 days for 6 weeks. Mice were monitored before injections for signs of body weight loss, impaired mobility, labored breathing and body score based on the Ullman-Culleré MH, Foltz CJ method. (B-D) FH535 reduces tumor growth in vivo in a xenograft tumor model. Huh7 cell were injected subcutaneously on the right flank of athymic nude mice. FH535 (15 mg/Kg) or vehicle (DMSO) were administrated by intraperitoneal injection every other day when tumor size reached 100 mm^3. (B) Tumor growth was monitored every other day until day 10 of starting treatments when mice were euthanized according to the AVMA guidelines, *p<0.05 (n=5, each group); (C) Tumor weight of excised tumors after 10 day treatment with FH535 reduced the tumor weight in 42±8% compared to vehicle treatment, **p<0.001 (n=4, each group). (D) H&E and ki67 stainings from one representative tumor of each group treatment. Pictures were taken at 400× magnification.
To validate further the in vivo anti-tumor effect of FH535, we performed a gross-toxicity assay in mice with FH535 doses ranging from 0 to 30 mg/kg. […] Next, we evaluated the in vivo anti-tumor activity of FH535 in a Huh7 tumor xenograft model. […]

[5] = test system: Huh7 tumor xenograft; test: Huh7 tumor xenograft model in athymic nude mice; format: in vivo
Description: All animal experiments were performed in accord with the guidelines, rules and recommendations and was approved by the University of Kentucky Institutional Animal Care and Use Committee after approval (IACUC). Three- to four-weeks old female athymic nude mice (nu/nu, The Jackson Laboratory, USA) were housed in a pathogen-free environment at the Division of Laboratory Animal Resources of the Chandler Medical Center, University of Kentucky. To generate in vivo tumors, Huh7 culture cells in mid-log phase growth were collected and re-suspended in a 50% mixture of Matrigel (BD Biosciences, USA) in serum-free medium to a final concentration of 6×10^7 cells per mL. A volume of 0.1 mL of the cell suspension was injected subcutaneously in the right flank of each mouse. Mice were weighed and checked for tumor growth every other day. When tumors reached a volume of 100 mm^3, mice were randomly divided into two groups of 5: vehicle control group and FH535 group (receiving 15 mg of FH535/kg/day from a stock prepared in dimethyl sulfoxide (DMSO) at 21.7 mg/mL and diluted in serum-free medium to a final concentration of 40% DMSO). Vehicle and FH535 were administered by intraperitoneal injection every other day. Tumors were measured using an optical caliper and tumor size was calculated using the formula: 0.5×length×(width)^2. Mice were euthanized at the end of the experiment or when reaching humane end-point following AVMA guidelines. Humane end-points included animals with tumors exceeding 20 mm in maximum diameter, with ulcerated tumors, more than 20% body weight loss, impaired mobility, labored breathing or with a body condition score below 2.
Tumors from the xenograft model were formaldehyde fixed and paraffin-embedded and were used to performed H&E staining and immunohistochemistry of Ki-67 according to standard procedures.

[6] = test system: Huh7 cells; test: Western blot of autophagy markers LC3II and p62 in Huh7 cells; format: cell-based, human
Excerpt: Primary antibodies are described in Table 1.

[7] = test system: p62; test: RT-qPCR of p62 mRNA in Huh7 cells; format: cell-based, human; settings: Huh7, absence of CQ
Description: Total RNA was extracted with miRNeasy mini kit (Qiagen, Germany), and the corresponding cDNA was produced using iScript cDNA synthesis kit (BioRad, USA) from 1 μg of total RNA. Real time quantitative PCR (RT-qPCR) was performed using SsoAdvanced Universal SYBR Green supermix (BioRad, USA) with specific primers: p62 (SQSTM1: 5′-[…]-3′ (SEQ ID NO: 1) and 5′-[…]-3′ (SEQ ID NO: 2)); c-MYC (cMYC: 5′-[…]-3′ (SEQ ID NO: 3) and 5′-[…]-3′ (SEQ ID NO: 4)), Survivin (BIRC5, 5′-[…]-3′ (SEQ ID NO: 5) and 5′-[…]-3′ (SEQ ID NO: 6)), AXIN 2 (AXIN2: 5′-[…]-3′ (SEQ ID NO: 7) and 5′-[…]-3′ (SEQ ID NO: 8)), Cyclin D1 (5′-CCND1: […]-3′ (SEQ ID NO: 9) and 5′-[…]-3′ (SEQ ID NO: 10)), and b2-microglobulin (B2M: 5′-[…]-3′ (SEQ ID NO: 11) and 5′-[…]-3′ (SEQ ID NO: 12)). Transcript levels were normalized to β-actin or […] level as indicated using the ΔΔCt method.

SMILES: Cc1cc([N+](=O)[O-])ccc1NS(=O)(=O)c1cc(Cl)ccc1Cl [FH535, 2,5-dichloro-N-(2-methyl-4-nitrophenyl)benzenesulfonamide]
- time to AMPK activation after treatment [1]: ≤ 15 min
- ACC (S79 phosphorylation) ([1]; 3 μM): induced AMPK phosphorylation and ACC phosphorylation
- AMPK activity (T172 phosphorylation) ([1]; 3 μM): activated AMPK
- rate of ATP production in mitochondria [2]: decreased the rates of ATP production in mitochondria
- uncoupling: OCR blocked by oligomycin [3]: increased OCR in dose-dependent manner
- signs of body distress or toxicity (weight loss, ambulatory ability, respiration, dehydration) [4]: did not induce major signs of body distress or toxicity
- reduction of tumor weight compared to vehicle ([5]; 15 mg/Kg i.p. every other day, 10 day treatment): 42±8%
- tumor volume compared to control group ([5]; 15 mg/kg every other day, after four days of treatment, p<0.05): significantly reduced
- proliferation index (Ki-67) ([5]; excised tumors, same in control group): greater than 95%
- accumulation of LC3II in the presence of CQ (autophagic flux, ΔLC3II) ([6]; Huh7, 50 μM CQ 8 h): reduced accumulation of LC3II in the presence of CQ
- LC3II protein levels ([6]; Huh7, 40 h): increased the lipid-bound expression of LC3II levels in a dose-dependent manner
- p62 protein levels ([6]; Huh7, 40 h): increased
- p62 mRNA levels [7]: increase of p62 mRNA levels
